Tests used:
[1] = test system: MMP-9; assay: Substrate phage display with NGS: relative probability (RP) of P3-P1' tetramer clusters; format: biochemical, human; conditions: MMP9; RP of the substrate's P3-P1' tetramer, substrate phage display with NGS;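 also: ratio of tetramer probability after protease selection to that in naive phage library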
[2] = target: T1, MMP-2 (Homo sapiens, UniProt P08253); assay: K(obs) of individual phage substrates (set of 1369); format: biochemical; conditions: MMP2; individual phage substrate from the set of 1369 peptides; hyphen in the sequence marks the cleavage position
T1 sequence (P08253 110-660): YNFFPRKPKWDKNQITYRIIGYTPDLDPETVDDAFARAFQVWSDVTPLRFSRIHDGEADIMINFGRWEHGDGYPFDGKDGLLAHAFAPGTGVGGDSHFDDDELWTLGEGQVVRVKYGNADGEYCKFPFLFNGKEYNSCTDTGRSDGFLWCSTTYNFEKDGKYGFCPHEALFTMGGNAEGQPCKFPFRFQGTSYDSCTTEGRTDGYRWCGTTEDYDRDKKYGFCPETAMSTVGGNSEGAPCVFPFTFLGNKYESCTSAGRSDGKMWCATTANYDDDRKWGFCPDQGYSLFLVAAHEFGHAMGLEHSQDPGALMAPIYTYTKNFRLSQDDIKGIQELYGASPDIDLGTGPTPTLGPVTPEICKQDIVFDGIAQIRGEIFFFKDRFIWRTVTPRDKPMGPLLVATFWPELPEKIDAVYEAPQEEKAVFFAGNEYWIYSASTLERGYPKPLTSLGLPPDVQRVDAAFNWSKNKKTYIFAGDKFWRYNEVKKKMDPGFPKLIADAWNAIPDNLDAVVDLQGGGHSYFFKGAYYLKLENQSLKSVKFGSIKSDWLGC

[3] = target: MMP-9 (Homo sapiens, UniProt P14780); assay: as above; format: biochemical; conditions: MMP9; individual phage substrate of the set of 1369 peptides; dash in sequence marks cleavage position
Chain of MMP-9 (Homo sapiens, UniProt P14780) (P14780 94-707): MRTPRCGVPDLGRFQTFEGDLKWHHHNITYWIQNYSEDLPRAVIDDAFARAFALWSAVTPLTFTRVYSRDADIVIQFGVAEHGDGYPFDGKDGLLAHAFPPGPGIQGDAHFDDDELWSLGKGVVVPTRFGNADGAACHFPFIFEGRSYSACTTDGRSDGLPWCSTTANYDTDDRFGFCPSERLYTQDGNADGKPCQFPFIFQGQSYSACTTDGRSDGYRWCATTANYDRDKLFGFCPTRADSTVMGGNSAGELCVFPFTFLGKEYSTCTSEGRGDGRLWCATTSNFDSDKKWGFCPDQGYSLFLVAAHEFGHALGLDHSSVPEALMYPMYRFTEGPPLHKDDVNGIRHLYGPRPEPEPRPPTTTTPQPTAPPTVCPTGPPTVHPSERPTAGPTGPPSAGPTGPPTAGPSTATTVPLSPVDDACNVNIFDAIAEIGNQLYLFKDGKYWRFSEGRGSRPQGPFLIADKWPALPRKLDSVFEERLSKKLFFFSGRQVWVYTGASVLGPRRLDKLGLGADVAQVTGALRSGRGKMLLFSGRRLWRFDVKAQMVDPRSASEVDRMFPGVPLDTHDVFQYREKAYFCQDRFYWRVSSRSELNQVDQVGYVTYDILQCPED

Substance	Kobs [2] [M⁻¹ s⁻¹]	Kobs [3] [M⁻¹ s⁻¹]	relative probability (RP) [1]
TIPSW-STASG	5461.43	2476.66	17.8128
PSLAE-LTASG	8941.32	654.784	0.4438
KRVYL-LTASG	484.315	2687.73	2.817
KGPSG-LTASG	12792.1	10866.7	47.388
MFVRK-LTASG	10866.7	4763.33	0
GEPLF-LRTAS	12792.1	12792.1	38.6603
HTVYW-MTASG	2038.8	6396.07	40.8648
IAPAK-LTASG	12792.1	12792.1	39.5582
HRPEW-YTASG	3741.87	4082.43	25.7162
GSAIP-LWTAS	1418.96	2038.8	32.5296
GGSGN-LTVKT	12792.1	0	1.504
GAPAR-FTTAS	12792.1	1071.29	21.7112
STIAH-YTASG	12792.1	451.441	10.3185
SGPSA-LDATA	5269.78	799.117	47.6113
GNPLG-IRTAS	12792.1	12792.1	48.5606
SGPRW-LMSTA	12792.1	12792.1	47.776
NRPSW-VTASG	9740.44	12792.1	29.0809

The next lines start with results.

Kobs [2] [M⁻¹ s⁻¹]	Kobs [3] [M⁻¹ s⁻¹]	Substance	relative probability (RP) [1]
12792.1	5090.5	SGPGA-MMFTA	36.3159
3536.02	12792.1	IGVRQ-LTASG	23.9228
12792.1	142.481	SQLGL-LTASG	4.41
12792.1	4335.13	GLARA-LKTAS	38.5396
12792.1	12792.1	VVPNN-LTASG	38.7188
12792.1	12792.1	AHPSA-LTASG	47.6113
12792.1	3079.62	GRPAG-VKTAS	31.0803
12792.1	2916.17	FHPSR-FTASG	21.0555
12792.1	5269.78	SVPST-LTASG	36.3405
6396.07	3253.29	GMLRA-MHTAS	36.706
12792.1	12792.1	KVLSA-VTASG	0.4242
1418.96	7815.03	SGPRG-MKTTA	47.6962
2996.69	113.394	EHPGL-LTASG	19.6268
8321.48	12792.1	GMPLL-LRTAS	32.5638

Reference: publication PMC7932537, “Quantitative profiling of protease specificity” (PLoS Computational Biology, 2021)
